Data from EP0167553B1, “NEW THERAPEUTICAL APPLICATION OF AN INDANE DIONE DERIVATIVE AND PHARMACEUTICAL COMPOSITIONS INTENDED TO SAID UTILIZATION” (priority 1983, dated 1985).

Assays:
Rats: Wistar femelles [1] = assay: Atherogenic diet (modified Aubert technique): mortality, body weight, tolerance, overall score; type: in vivo, Rat Wistar; conditions: 100 mg/kg
Description: (§1) • - Rats: Wistar femelles, E.O.P.S. en provenance de l'élevage EVIC-CEBA. • - Poids corporel: 160 180 g au départ de l'étude • - Alimentation: UAR A03, enrichi en cholestérol (0,5 %) et en Acide chloique (0,5 %). • - Eau de boisson: eau de ville. • - 15 animaux par lot et par cage MAKROLON SAFI® de 59 x 38,5 cm sur litière de copeaux de bois blanc dépoussiérés. • - Cages placées dans un module animalerie climatisé (20°C * 1°C), à l'humidité constante (50 % ± 10 %). Durée d'éclairement: 12 heures par jour (7 h à 19 h). • - Administration des produits: Après 15 jours de régime athéromateux, on leur administre par voie orale pendant 4 jours 250 000 Ul/kg de vitamine D2 (Stérogyl 15 H) en solution dans l'huile d'olive. On administre ensuite les produits à étudier pendant 4 semaines dès la fin de l'administration de l'agent lésionnel.
(§2) L'étude porte sur 5 Lots de 15 rats (tableau N° IV)
• - Le comportement et l'[…] pondérale des animaux sont étudiés par l'observation quotidienne et les pesées hebdomadaires. L'étude de l'évolution pondérale ne montre pas de différence significative entre les différents lots. C'est un indice de bonne tolérance du traitement. • - La moralité est notée dans chaque lot; elle peut atteindre 30 % des animaux ce qui nécessite des lots de 15 animaux. L'administration chronique de 100 mg/kg de Clofibrate correspond à la dose maximale tolérée par le Rat sain selon nos expériences personnelles.
Les scores obtenus par les différents produits étudiés sont les suivants (Tableau V)

Rats: Wistar femelles [2] = assay: Atherogenic diet (modified Aubert technique): biochemical examinations and atherogenic risk; type: in vivo, Rat Wistar; set-up: score général Biochimie / Risque athérogène Score Total: scale not given here; conditions: 100 mg/kg
Source text: (§3) La technique utilisée est celle, légèrement modifiée, de AUBERT D., FERAUD J.C., LACAZE B., PEPINO., PANAK E. et PODESTA M. "Athérogénèse expérimentale chez le Rat Wistar". ATHEROSCLEROSIS 2Q (1974) 263 - 280.
as §1, §2
En fin d'étude, on pratique sur tous les animaux survivants les examens suivants: • - Cholestérol total, • - Cholestérol estérifié, • - Cholestérol HDL • - Cholestérol LDL (évaluation), • - Lipides totaux, • - Triglycérides.

Rats: Wistar femelles [3] = assay: Atherogenic diet (modified Aubert technique): histopathological examination; type: in vivo, Rat Wistar; conditions: 100 mg/kg; three parameters scored relative to Clofibrate
Source text: as §3, §1
Les aortes, les foies et les coeurs sont fixés au Bouitaqueux et inclus à la paraffine après passage par les alcools à concentration croissante et par le toluène.
Les foies sont colorés par la technique à l'hématéine-éosine. Les aortes sont colorées par: • - la technique à l'orcéine - vert lumière afin de mettre en évidence les altérations structurales des lames élastiques. • - la technique à l'acide périodique plus réactif de Schiff pour déceler les dépôts de mucopolysaccharides, • - la technique à l'hématéine plus éosine afin de mettre en évidence les dépôts de calcium.
L'intensité des altérations observées et le degré d'athéromatose sont indiquées par l'un des signes:
• - Pas d'athéromatose 0 • = Très léger degré d'athéromatose 0,5 • + Léger degré d'athéromatose 1 • ++ Moyen degré d'athéromatose 2 • +++Important degré d'athéromatose 3
Les zones athéromateuses sont dénombrées sur une longueur identique pour chacune des aortes examinées. […]

Rats: Wistar femelles [4] = assay: Atherogenic diet (modified Aubert technique): macroscopic examination of the aorta; type: in vivo, Rat Wistar; conditions: 100 mg/kg
Source text: as §3, §1
En fin d'étude, tous les animaux sont sacrifiés par ponction subtotale du sang à l'aorte abdominale après anesthésie au pentobarbital sodique. On prélève le coeur, le foie et l'aorte sur laquelle on effectue la cotation du pouvoir athérogène. Pour ce faire, les aortes sont coupées longitudinalement puis étalées pour permettre une vue d'ensemble du revêtement endothélial depuis les valvules aortiques jusqu'à la bifurcation du tronc coeliaque (segment inférieur de l'aorte thoracique).
L'aorte est séparée en 2 zones: • - Zone 1: Valvules aortiques - premières artères intercostales • - Zone 2: premières artères intercostales - bifurcation du tronc coeliaque.
L'intensité des dépôts athéromateux est évaluée selon les critères suivants: • - Stade 0: Absence de dépôts • - Stade 1: Dépôts discrets ([…]) peu nombreux • - Stade 2: Dépôts discrets nombreux • - Stade 3: Dépôts importants (> 1 mm) nombreux • - Stade 4: Dépôts très importants ou très nombreux mais laissant quelques zones non infiltrées. • - Stade 5: Dépôts sur tout l'endothélium.
Deux paramètres sont à prendre en considération: • 1. Le nombre d'animaux présentant des lésions macroscopiques, dont le pourcentage d'animaux atteints. • 2. L'intensité des lésions observées cotées selon les indications fournies précédemment.

Rat Wistar = assay: Hyperlipidaemia induced by Triton WR 1339 injection; type: in vivo; set-up: Triglycérides, score par rapport au Procétofène 250 mg/kg: scale not given here
Source text: L'hyperlipidémie par injection de Triton WR 1339 (marque de fabrique), réalisée chez le Rat Wistar, est antagonisée ou diminuée par l'administration d'agents hypolipémiants.
• - Rats Wistar mâles. • - Poids corporel: 150 -180 grammes. • - Animaux E.O.P.S. (Exempts d'Organisme Pathogène Spécifique). • - Alimentation UAR A04 • - Eau de boisson à volonté • - 6 animaux par lot de traitement et par cage MAKROLON SAFI (marque de fabrique) 60 X 40 cm, sur litière de copeaux de bois dépoussiérés • - Cages placées dans un module animalerie climatisé (19 à 21°C) à degré hygrométrique constant (40 à 60 p.100), dans lequel l'air est renouvelé 10 fois par heure, 12 heures d'éclairement par jour.
• . - 18 h: mise à jeun. • . Temps 0 - administration du Triton WR 1339® (400 mg/kg IP.). • . + 10 mn: administration du produit étudié. • - + 6 h: 1er prélèvement sanguin au sinus rétro-orbitaire. • . + 24 h: 2ème prélèvement sanguin au sinus rétro-orbitaire.
L'essai comporte 8 lots dont un lot témoin (animaux sains) et un lot témoin triton (Tableau I).

[5] = 4 weeks, score relative to Clofibrate (Base 1)
[6] = 250 mg/kg, 6 heures after Triton
[7] = 250 mg/kg, 24 heures after Triton
[8] = 500 mg/kg, 6 heures after Triton
[9] = 500 mg/kg, 24 heures after Triton

## CC(C)OC(=O)C(C)(C)Oc1ccc(C(=O)c2ccc(Cl)cc2)cc1 [Fenclofibrate]
Rats: Wistar femelles [1]; lots of 15 rats on atherogenic diet
  taux de mortalité: 3/15
Rats: Wistar femelles [1]; sum of Biochimie, Risque athérogène, Macroscopie, Histologie
  Score Total: 6.51
Rats: Wistar femelles [2]
  Cholesterol LDL Cholesterol HDL Score/Clofibrate: 0.16
  Cholesterol T/ Cholesterol HDL Score/Clofibrate: 0.07
  Risque athérogène Score Total: 0.23
Rats: Wistar femelles [2]; [5]
  Cholesterol E Score: 0.40
  Cholesterol HDL Score: 0.04
  Cholesterol LDL Score: 0.16
  Cholesterol T Score: 0.02
  Lipides totaux Score: 0.29
Rats: Wistar femelles [2]; atherogenic risk ratio
  Cholesterol LDL Cholesterol HDL Score: 21.44
  Cholesterol T/ Cholesterol HDL Score: 25.32
Rats: Wistar femelles [2]; sum of the individual biochemical scores
  score général Biochimie: 1.98
Rats: Wistar femelles [3]
  Histologie score: 2.13
Rats: Wistar femelles [4]
  Animaux Atteints Score Clofibrate: 0.92
  Intensité des lésions Score Clofibrate: 1.25
  Observations Macroscopiques Score Total: 2.17
Rats: Wistar femelles [4]; animals with macroscopic lesions
  Animaux Atteints %: 83.33%
Rats: Wistar femelles [4]; scale Stade 0 to Stade 5
  Intensité des lésions Cotation: 1.83

## CC(C)OC(=O)C(C)(C)Oc1ccc(C(=O)c2ccc(Cl)cc2)cc1 [Procétofène, reference compound]
Rat Wistar; [6]
  Chol. HDL/ LDL, score par rapport au Procétofène 250 mg/kg: 1.00
  Chol. Total, score par rapport au Procétofène 250 mg/kg: 1.00
  Lipides Totaux, score par rapport au Procétofène 250 mg/kg: 1.00
  Score Total par rapport au Procétofène 250 mg/kg: 4.00
  Triglycérides, score par rapport au Procétofène 250 mg/kg: 1.00
Rat Wistar; [7]
  Chol. HDL/ LDL, score par rapport au Procétofène 250 mg/kg: 1.00
  Chol. Total, score par rapport au Procétofène 250 mg/kg: 1.00
  Lipides Total, score par rapport au Procétofène 250 mg/kg: 1.00
  Score Total par rapport au Procétofène 250 mg/kg: 4.00
  Triglycérides, score par rapport au Procétofène 250 mg/kg: 1.00
Rat Wistar; [8]
  Chol. HDL/ LDL, score par rapport au Procétofène 250 mg/kg: 1.53
  Chol. Total, score par rapport au Procétofène 250 mg/kg: 1.65
  Lipides Totaux, score par rapport au Procétofène 250 mg/kg: 1.65
  Score Total par rapport au Procétofène 250 mg/kg: 5.12
Rat Wistar; [9]
  Chol. HDL/ LDL, score par rapport au Procétofène 250 mg/kg: 0.30
  Lipides Total, score par rapport au Procétofène 250 mg/kg: 0.85
  Score Total par rapport au Procétofène 250 mg/kg: 3.33
